# Laboratory results taken from PubChem BioAssay AID1259407 (Chemical Carcinogenesis Research Information System (CCRIS), 2018).
# Activity calls are given as the source filed them. The rule behind the calls is not given here.
# System: CCRIS mutagenicity, Ames/micronucleus/aberration tests
# Assay: CCRIS mutagenicity studies
# [1] = Test System: AMES SALMONELLA TYPHIMURIUM, Strain/Indicator: TA98, Metabolic Activation: NONE, Method: PREINCUBATION
# [2] = Test System: AMES SALMONELLA TYPHIMURIUM, Strain/Indicator: TA100, Metabolic Activation: NONE, Method: PREINCUBATION
# [3] = Test System: AMES SALMONELLA TYPHIMURIUM, Strain/Indicator: TA1535, Metabolic Activation: NONE, Method: PREINCUBATION
# [4] = Test System: AMES SALMONELLA TYPHIMURIUM, Strain/Indicator: TA1537, Metabolic Activation: NONE, Method: PREINCUBATION
# [5] = Test System: MOUSE LYMPHOMA, Strain/Indicator: L5178Y (TK+/TK-), Metabolic Activation: NONE, Method: SUSPENSION/PLATE
structure (smiles),measurement,setting,value
NCc1cccc(CN)c1,mutagenic call,"Test System: AMES SALMONELLA TYPHIMURIUM, Strain/Indicator: TA98, Metabolic Activation: HAMSTER, LIVER, S-9, AROCLOR 1254, Method: STANDARD PLATE",inactive; negative
same,mutagenic call,[1],inactive; negative
same,mutagenic call,"Test System: AMES SALMONELLA TYPHIMURIUM, Strain/Indicator: TA98, Metabolic Activation: NONE, Method: STANDARD PLATE",inactive; negative
same,mutagenic call,"Test System: AMES SALMONELLA TYPHIMURIUM, Strain/Indicator: TA98, Metabolic Activation: RAT, LIVER, S-9, AROCLOR 1254, Method: STANDARD PLATE",inactive; negative
same,mutagenic call,"Test System: AMES SALMONELLA TYPHIMURIUM, Strain/Indicator: TA98, Metabolic Activation: RAT, LIVER, S-9, PCB, Method: PREINCUBATION",inactive; negative
same,mutagenic call,"Test System: AMES SALMONELLA TYPHIMURIUM, Strain/Indicator: TA98, Metabolic Activation: RAT, LIVER, S-9, PHENOBARBITAL AND BETA-NAPHTHOFLAVONE, Method: PREINCUBATION",inactive; negative
same,mutagenic call,"Test System: AMES SALMONELLA TYPHIMURIUM, Strain/Indicator: TA100, Metabolic Activation: HAMSTER, LIVER, S-9, AROCLOR 1254, Method: STANDARD PLATE",inactive; negative
same,mutagenic call,[2],inactive; negative
same,mutagenic call,"Test System: AMES SALMONELLA TYPHIMURIUM, Strain/Indicator: TA100, Metabolic Activation: NONE, Method: STANDARD PLATE",inactive; negative
same,mutagenic call,"Test System: AMES SALMONELLA TYPHIMURIUM, Strain/Indicator: TA100, Metabolic Activation: RAT, LIVER, S-9, AROCLOR 1254, Method: STANDARD PLATE",inactive; negative
same,mutagenic call,"Test System: AMES SALMONELLA TYPHIMURIUM, Strain/Indicator: TA100, Metabolic Activation: RAT, LIVER, S-9, PCB, Method: PREINCUBATION",inactive; negative
same,mutagenic call,"Test System: AMES SALMONELLA TYPHIMURIUM, Strain/Indicator: TA100, Metabolic Activation: RAT, LIVER, S-9, PHENOBARBITAL AND BETA-NAPHTHOFLAVONE, Method: PREINCUBATION",inactive; negative
same,mutagenic call,"Test System: AMES SALMONELLA TYPHIMURIUM, Strain/Indicator: TA102, Metabolic Activation: NONE, Method: PREINCUBATION",inactive; negative
same,mutagenic call,"Test System: AMES SALMONELLA TYPHIMURIUM, Strain/Indicator: TA102, Metabolic Activation: RAT, LIVER, S-9, SODIUM PHENOBARBITAL AND 5,6-BENZOFLAVONE, Method: PREINCUBATION",inactive; negative
same,mutagenic call,"Test System: AMES SALMONELLA TYPHIMURIUM, Strain/Indicator: TA104, Metabolic Activation: NONE, Method: PREINCUBATION",inactive; negative
same,mutagenic call,"Test System: AMES SALMONELLA TYPHIMURIUM, Strain/Indicator: TA104, Metabolic Activation: RAT, LIVER, S-9, SODIUM PHENOBARBITAL AND 5,6-BENZOFLAVONE, Method: PREINCUBATION",inactive; negative
same,mutagenic call,"Test System: AMES SALMONELLA TYPHIMURIUM, Strain/Indicator: TA1535, Metabolic Activation: HAMSTER, LIVER, S-9, AROCLOR 1254, Method: STANDARD PLATE",inactive; negative
same,mutagenic call,[3],inactive; negative
same,mutagenic call,"Test System: AMES SALMONELLA TYPHIMURIUM, Strain/Indicator: TA1535, Metabolic Activation: NONE, Method: STANDARD PLATE",inactive; negative
same,mutagenic call,"Test System: AMES SALMONELLA TYPHIMURIUM, Strain/Indicator: TA1535, Metabolic Activation: RAT, LIVER, S-9, AROCLOR 1254, Method: STANDARD PLATE",inactive; negative
same,mutagenic call,"Test System: AMES SALMONELLA TYPHIMURIUM, Strain/Indicator: TA1535, Metabolic Activation: RAT, LIVER, S-9, PHENOBARBITAL AND BETA-NAPHTHOFLAVONE, Method: PREINCUBATION",inactive; negative
same,mutagenic call,"Test System: AMES SALMONELLA TYPHIMURIUM, Strain/Indicator: TA1537, Metabolic Activation: HAMSTER, LIVER, S-9, AROCLOR 1254, Method: STANDARD PLATE",inactive; negative
same,mutagenic call,[4],inactive; negative
same,mutagenic call,"Test System: AMES SALMONELLA TYPHIMURIUM, Strain/Indicator: TA1537, Metabolic Activation: NONE, Method: STANDARD PLATE",inactive; negative
same,mutagenic call,"Test System: AMES SALMONELLA TYPHIMURIUM, Strain/Indicator: TA1537, Metabolic Activation: RAT, LIVER, S-9, AROCLOR 1254, Method: STANDARD PLATE",inactive; negative
same,mutagenic call,"Test System: AMES SALMONELLA TYPHIMURIUM, Strain/Indicator: TA1537, Metabolic Activation: RAT, LIVER, S-9, PHENOBARBITAL AND BETA-NAPHTHOFLAVONE, Method: PREINCUBATION",inactive; negative
same,mutagenic call,"Test System: AMES SALMONELLA TYPHIMURIUM, Strain/Indicator: TA1538, Metabolic Activation: HAMSTER, LIVER, S-9, AROCLOR 1254, Method: STANDARD PLATE",inactive; negative
same,mutagenic call,"Test System: AMES SALMONELLA TYPHIMURIUM, Strain/Indicator: TA1538, Metabolic Activation: NONE, Method: STANDARD PLATE",inactive; negative
same,mutagenic call,"Test System: AMES SALMONELLA TYPHIMURIUM, Strain/Indicator: TA1538, Metabolic Activation: RAT, LIVER, S-9, AROCLOR 1254, Method: STANDARD PLATE",inactive; negative
same,mutagenic call,"Test System: E. COLI, Strain/Indicator: WP2UVRA/PKM101, Metabolic Activation: NONE, Method: PREINCUBATION",inactive; negative
same,mutagenic call,"Test System: E. COLI, Strain/Indicator: WP2UVRA/PKM101, Metabolic Activation: RAT, LIVER, S-9, PHENOBARBITAL AND BETA-NAPHTHOFLAVONE, Method: PREINCUBATION",inactive; negative
same,mutagenic call,"Test System: E. COLI, Strain/Indicator: WP2UVRA/PKM101, Metabolic Activation: RAT, LIVER, S-9, SODIUM PHENOBARBITAL AND 5,6-BENZOFLAVONE, Method: PREINCUBATION",inactive; negative
same,mutagenic call,"Test System: E. COLI, Strain/Indicator: WP2UVRA, Metabolic Activation: NONE, Method: PREINCUBATION",inactive; negative
same,mutagenic call,"Test System: E. COLI, Strain/Indicator: WP2UVRA, Metabolic Activation: RAT, LIVER, S-9, PHENOBARBITAL AND BETA-NAPHTHOFLAVONE, Method: PREINCUBATION",inactive; negative
same,mutagenic call,"Test System: E. COLI, Strain/Indicator: WP2UVRA, Metabolic Activation: RAT, LIVER, S-9, SODIUM PHENOBARBITAL AND 5,6-BENZOFLAVONE, Method: PREINCUBATION",inactive; negative
same,mutagenic call,[5],inactive; negative. reevaluation of results: negative
same,mutagenic call,"Test System: MOUSE LYMPHOMA, Strain/Indicator: L5178Y (TK+/TK-), Metabolic Activation: RAT, LIVER, S-9, AROCLOR 1254, Method: SUSPENSION/PLATE",inactive; negative. reevaluation of results: negative
c1ccc2occc2c1,mutagenic call,"Test System: AMES SALMONELLA TYPHIMURIUM, Strain/Indicator: TA98, Metabolic Activation: HAMSTER, LIVER, S-9, AROCLOR 1254, Method: PREINCUBATION",inactive; negative
same,mutagenic call,[1],inactive; negative
same,mutagenic call,"Test System: AMES SALMONELLA TYPHIMURIUM, Strain/Indicator: TA98, Metabolic Activation: RAT, LIVER, S-9, AROCLOR 1254, Method: PREINCUBATION",inactive; negative
same,mutagenic call,"Test System: AMES SALMONELLA TYPHIMURIUM, Strain/Indicator: TA100, Metabolic Activation: HAMSTER, LIVER, S-9, AROCLOR 1254, Method: PREINCUBATION",inactive; negative
same,mutagenic call,[2],inactive; negative
same,mutagenic call,"Test System: AMES SALMONELLA TYPHIMURIUM, Strain/Indicator: TA100, Metabolic Activation: RAT, LIVER, S-9, AROCLOR 1254, Method: PREINCUBATION",inactive; negative
same,mutagenic call,"Test System: AMES SALMONELLA TYPHIMURIUM, Strain/Indicator: TA1535, Metabolic Activation: HAMSTER, LIVER, S-9, AROCLOR 1254, Method: PREINCUBATION",inactive; negative
same,mutagenic call,[3],inactive; negative
same,mutagenic call,"Test System: AMES SALMONELLA TYPHIMURIUM, Strain/Indicator: TA1535, Metabolic Activation: RAT, LIVER, S-9, AROCLOR 1254, Method: PREINCUBATION",inactive; negative
same,mutagenic call,"Test System: AMES SALMONELLA TYPHIMURIUM, Strain/Indicator: TA1537, Metabolic Activation: HAMSTER, LIVER, S-9, AROCLOR 1254, Method: PREINCUBATION",inactive; negative
same,mutagenic call,[4],inactive; negative
same,mutagenic call,"Test System: AMES SALMONELLA TYPHIMURIUM, Strain/Indicator: TA1537, Metabolic Activation: RAT, LIVER, S-9, AROCLOR 1254, Method: PREINCUBATION",inactive; negative
same,mutagenic call,[5],active; positive
